According to patent publication US20050203482A1, “Pharmaceutical dispensing apparatus and method” (priority 2004, published 2005):
≈ marks a conversion by molar mass, not a printed value.

Test: physchem
From the text: The solvents and co-solvents are listed by percentage of volume.

Structure (SMILES): C[C@H]1O[C@@H](O[C@H]2[C@@H](O)C[C@H](O[C@H]3[C@@H](O)C[C@H](O[C@H]4CC[C@@]5(C)[C@H](CC[C@@H]6[C@@H]5C[C@@H](O)[C@]5(C)[C@@H](C7=CC(=O)OC7)CC[C@]65O)C4)O[C@@H]3C)O[C@@H]2C)C[C@H](O)[C@@H]1O [Digoxin]
- solubility (aqueous with cosolvent or surfactant or cyclodextrin, solvent 2-P 56%, co-solvent Water 44%, approximate): 56 mg/mL (≈ 71.7 mM)
- solubility (aqueous with cosolvent or surfactant or cyclodextrin, solvent 55% Water, co-solvent 45% H-107, approximate): 52 mg/mL (≈ 66.6 mM)
- solubility (aqueous with cosolvent or surfactant or cyclodextrin, solvent Ethanol 80%, co-solvent Water 17%, additive Glycerin 3%, approximate): 9 mg/mL (≈ 11.5 mM)
- solubility (organic solvent or mixture, solvent 1,5-pentanediol, approximate): < 21.9 mg/mL
- solubility (organic solvent or mixture, solvent 2-P 80%, co-solvent Ethanol 20%, approximate): ≥ 75 mg/mL
- solubility (organic solvent or mixture, solvent 2-P 100%, approximate): 102 mg/mL (≈ 131 mM)
- solubility (organic solvent or mixture, solvent Acetone, approximate): < 30 mg/mL
- solubility (organic solvent or mixture, solvent DMSO 80%, co-solvent (EtOH) ethanol alcohol 20%, approximate): 200 mg/mL (≈ 256 mM)
- solubility (organic solvent or mixture, solvent Ethanol 100%, approximate): 9 mg/mL (≈ 11.5 mM)
- solubility (organic solvent or mixture, solvent Ethyl acetate, approximate): < 16.3 mg/mL
- solubility (organic solvent or mixture, solvent Ethylene glycol (LEG), approximate): < 16.3 mg/mL
- solubility (organic solvent or mixture, solvent Glycerine, approximate): < 14.2 mg/mL
- solubility (organic solvent or mixture, solvent Polyethylene glycol 400 90% Absolute ethanol 6%, co-solvent Water 1%, additive Propylene glycol 3%, approximate): 0.25 mg/mL (≈ 0.32 mM)
- solubility (organic solvent or mixture, solvent Polyethylene glycols (PEGs), approximate): < 19.3 mg/mL
- solubility (water, solvent Water, approximate): 0.024 to 0.07 mg/mL (≈ 0.0307 to 0.0896 mM)
